Measurements: ChEMBL document CHEMBL1743341, “Cytochrome p450 enzymes mechanism based inhibitors: common sub-structures and reactivity” (Curr Drug Metab, 2005)

Key:
CYP2B4 [1] = target: T1, CYP2B4 (Oryctolagus cuniculus, UniProt P00178); assay: (§1) Mechanism based inhibition of rabbit cytochrome P450 CYP2B4; format: ADME; settings: rabbit
T1 sequence (P00178 whole entry): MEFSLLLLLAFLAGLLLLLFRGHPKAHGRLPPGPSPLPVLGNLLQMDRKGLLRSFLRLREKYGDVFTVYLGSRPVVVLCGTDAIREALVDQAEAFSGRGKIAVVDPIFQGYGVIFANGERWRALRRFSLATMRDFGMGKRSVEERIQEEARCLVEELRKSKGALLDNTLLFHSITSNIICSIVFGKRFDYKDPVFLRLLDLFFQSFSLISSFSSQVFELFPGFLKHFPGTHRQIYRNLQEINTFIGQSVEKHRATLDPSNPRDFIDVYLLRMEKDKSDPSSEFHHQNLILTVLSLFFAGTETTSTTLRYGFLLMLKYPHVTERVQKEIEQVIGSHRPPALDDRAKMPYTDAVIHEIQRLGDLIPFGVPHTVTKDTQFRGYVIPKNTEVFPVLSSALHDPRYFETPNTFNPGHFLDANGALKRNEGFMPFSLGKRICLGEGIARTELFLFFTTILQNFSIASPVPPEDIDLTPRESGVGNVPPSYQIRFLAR

Cytochrome P450 2B4 [2] = target: T2, Cytochrome P450 2B4 (Oryctolagus cuniculus, UniProt P00178); assay: as §1; format: ADME
T2 sequence (P00178 whole entry): T1 sequence (P00178 whole entry)

CYP2B1 = target: T3, CYP2B1 (Rattus norvegicus, UniProt P00176); assay: (§2) Mechanism based inhibition of rat cytochrome P450 CYP2B1; format: ADME; settings: rat
T3 sequence (P00176 whole entry): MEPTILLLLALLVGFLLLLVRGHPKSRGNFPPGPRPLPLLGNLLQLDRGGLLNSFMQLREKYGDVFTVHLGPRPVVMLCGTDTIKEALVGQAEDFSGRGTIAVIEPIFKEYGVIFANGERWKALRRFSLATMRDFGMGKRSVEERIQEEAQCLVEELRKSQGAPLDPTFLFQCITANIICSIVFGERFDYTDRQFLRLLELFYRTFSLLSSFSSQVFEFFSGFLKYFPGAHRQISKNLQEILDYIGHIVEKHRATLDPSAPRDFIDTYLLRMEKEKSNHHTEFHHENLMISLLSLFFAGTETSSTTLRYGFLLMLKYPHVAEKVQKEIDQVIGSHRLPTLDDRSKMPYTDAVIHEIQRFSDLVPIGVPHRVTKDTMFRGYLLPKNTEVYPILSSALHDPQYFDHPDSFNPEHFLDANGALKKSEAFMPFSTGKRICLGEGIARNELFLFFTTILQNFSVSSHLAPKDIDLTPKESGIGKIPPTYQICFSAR

Cytochrome P450 2B1 = target: T4, Cytochrome P450 2B1 (Rattus norvegicus, UniProt P00176); assay: as §2; format: ADME
T4 sequence (P00176 whole entry): T3 sequence (P00176 whole entry)

Cytochrome P450 2B10 = Cytochrome P450 2B10 (Mus musculus, UniProt P12791); assay: Mechanism based inhibition of mouse cytochrome P450 CYP2B10; format: ADME
CYP1A1 = target: T5, CYP1A1 (Rattus norvegicus, UniProt P00185); assay: (§3) Mechanism based inhibition of rat cytochrome P450 CYP1A1 measured by ethoxyresorufin O-deethylation warfarin R-6 and R-8 hydroxylation; format: ADME; settings: rat
T5 sequence (P00185 whole entry): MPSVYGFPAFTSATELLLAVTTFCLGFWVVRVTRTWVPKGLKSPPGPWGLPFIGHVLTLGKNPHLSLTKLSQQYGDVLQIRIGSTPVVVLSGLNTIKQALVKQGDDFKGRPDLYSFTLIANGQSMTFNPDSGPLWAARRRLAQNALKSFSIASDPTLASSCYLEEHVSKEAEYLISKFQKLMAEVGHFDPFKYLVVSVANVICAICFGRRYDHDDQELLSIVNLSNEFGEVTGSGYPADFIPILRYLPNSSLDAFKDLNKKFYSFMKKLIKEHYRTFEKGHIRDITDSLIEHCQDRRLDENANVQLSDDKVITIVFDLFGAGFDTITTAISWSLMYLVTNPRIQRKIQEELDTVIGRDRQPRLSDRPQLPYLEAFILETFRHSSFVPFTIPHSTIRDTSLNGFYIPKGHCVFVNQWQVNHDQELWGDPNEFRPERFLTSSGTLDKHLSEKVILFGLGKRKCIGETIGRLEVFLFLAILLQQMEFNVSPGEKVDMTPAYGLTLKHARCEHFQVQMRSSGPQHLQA

Cytochrome P450 1A1 = target: T6, Cytochrome P450 1A1 (Rattus norvegicus, UniProt P00185); assay: as §3; format: ADME
T6 sequence (P00185 whole entry): T5 sequence (P00185 whole entry)

Cytochrome P450 2E1 [3] = target: T7, Cytochrome P450 2E1 (Rattus norvegicus, UniProt P05182); assay: Mechanism based inhibition of rabbit cytochrome P450 CYP2E1 measured by P-nitrophenol (PNP) hydroxylase activity; format: ADME, Oryctolagus cuniculus; settings: target entry is the homologue from another species
Cytochrome P450 2E1 [4] = target: T7, Cytochrome P450 2E1; assay: Mechanism based inhibition of rat cytochrome P450 CYP2E1; format: ADME
CYP2B4 [5] = target: T1, CYP2B4; assay: (§4) Mechanism based inhibition of rabbit cytochrome P450 CYP2B4 1-Phenylethanol oxidation was used as probe activity; format: ADME; settings: rabbit, probe 1-phenylethanol (oxidation)
Cytochrome P450 2B4 [6] = target: T2, Cytochrome P450 2B4; assay: as §4; format: ADME
Cytochrome P450 2B4 [7] = target: T2, Cytochrome P450 2B4; assay: Mechanism based inhibition of rabbit cytochrome P450 CYP2B4 partition ratio; format: ADME
Cytochrome P450 2C5 = Cytochrome P450 2C5 (Oryctolagus cuniculus, UniProt P00179); assay: Mechanism based inhibition of rabbit cytochrome P450 CYP2C5; format: ADME
CYP2B11 [8] = target: T8, CYP2B11 (Canis lupus familiaris, UniProt P24460); assay: (§5) Mechanism based inhibition of dog cytochrome P450 CYP2B11 measured by Diazepam N1-demethylation using liver microsomes; format: ADME, Microsome; settings: dog, liver microsomes, probe diazepam (N1-demethylation)
Cytochrome P450 2B11 [9] = target: T9, Cytochrome P450 2B11 (Canis lupus familiaris, UniProt P24460); assay: as §5; format: ADME, Microsome
CYP2B11 [10] = target: T8, CYP2B11; assay: (§6) Mechanism based inhibition of dog cytochrome P450 CYP2B11 measured by Diazepam N1-demethylation using recombinant enzyme; format: ADME; settings: dog, recombinant CYP2B11, probe diazepam (N1-demethylation)
Cytochrome P450 2B11 [11] = target: T9, Cytochrome P450 2B11; assay: as §6; format: ADME
Cytochrome P450 3A12 = Cytochrome P450 3A12 (Canis lupus familiaris, UniProt P24463); assay: Mechanism based inhibition of dog cytochrome P450 CYP3A12; format: ADME
[12] = target: Cholesterol side-chain cleavage enzyme, mitochondrial (Bos taurus, UniProt P00189); assay: Mechanism based inhibition of bovine cytochrome P450 CYP11A1; format: ADME; settings: cattle
Cytochrome P450 3A11 = Cytochrome P450 3A11 (Mus musculus, UniProt Q64459); assay: Mechanism based inhibition of mouse cytochrome P450 CYP3A11; format: ADME
CYP1A2 = target: T10, CYP1A2 (Rattus norvegicus, UniProt P04799); assay: (§7) Mechanism based inhibition of rat cytochrome P450 CYP1A2 measured by zolmitriptan metabolism; format: ADME; settings: rat, probe zolmitriptan (metabolism)
T10 sequence (P04799 whole entry): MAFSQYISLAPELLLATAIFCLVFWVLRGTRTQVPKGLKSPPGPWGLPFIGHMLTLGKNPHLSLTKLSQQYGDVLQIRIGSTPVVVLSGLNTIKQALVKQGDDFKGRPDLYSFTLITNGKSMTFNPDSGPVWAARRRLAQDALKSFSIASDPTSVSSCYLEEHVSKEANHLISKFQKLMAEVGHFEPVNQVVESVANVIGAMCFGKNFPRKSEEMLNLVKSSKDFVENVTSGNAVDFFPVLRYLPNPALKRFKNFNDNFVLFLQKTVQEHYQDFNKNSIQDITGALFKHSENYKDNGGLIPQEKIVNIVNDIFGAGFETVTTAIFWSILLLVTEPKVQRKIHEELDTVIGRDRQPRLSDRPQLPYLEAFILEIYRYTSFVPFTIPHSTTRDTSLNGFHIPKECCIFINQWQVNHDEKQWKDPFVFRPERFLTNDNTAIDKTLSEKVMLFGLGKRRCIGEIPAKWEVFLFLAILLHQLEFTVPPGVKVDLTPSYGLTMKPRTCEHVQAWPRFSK

Cytochrome P450 1A2 = target: T11, Cytochrome P450 1A2 (Rattus norvegicus, UniProt P04799); assay: as §7; format: ADME
T11 sequence (P04799 whole entry): T10 sequence (P04799 whole entry)

CYP2B6 = target: T12, CYP2B6 (Homo sapiens, UniProt P20813); assay: Mechanism based inhibition of human cytochrome P450 CYP2B6 measured by 7-EFC O-deethylation activity; format: ADME; settings: probe 7-EFC (O-deethylation)
T12 sequence (P20813 whole entry): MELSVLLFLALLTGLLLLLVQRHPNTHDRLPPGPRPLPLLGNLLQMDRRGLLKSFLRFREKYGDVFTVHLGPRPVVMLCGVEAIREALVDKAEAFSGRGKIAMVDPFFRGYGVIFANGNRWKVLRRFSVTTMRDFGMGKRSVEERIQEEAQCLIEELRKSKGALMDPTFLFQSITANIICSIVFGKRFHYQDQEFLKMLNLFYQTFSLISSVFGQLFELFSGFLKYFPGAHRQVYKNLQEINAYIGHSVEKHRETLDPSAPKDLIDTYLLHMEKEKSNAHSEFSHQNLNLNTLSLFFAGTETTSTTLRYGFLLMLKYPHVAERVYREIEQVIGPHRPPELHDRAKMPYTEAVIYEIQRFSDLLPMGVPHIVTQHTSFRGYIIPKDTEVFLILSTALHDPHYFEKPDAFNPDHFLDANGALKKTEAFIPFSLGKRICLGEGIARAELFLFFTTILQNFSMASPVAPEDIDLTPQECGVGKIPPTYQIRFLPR

CYP3A4 = CYP3A4 (Homo sapiens, UniProt P08684); assay: (§8) Mechanism based inhibition of human cytochrome P450 CYP3A4 measured by 7BFC O-debenzylation; format: ADME; settings: human, probe 7BFC (O-debenzylation)
Cytochrome P450 3A4 = Cytochrome P450 3A4 (Homo sapiens, UniProt P08684); assay: as §8; format: ADME
Cytochrome P450 2C11 = target: T13, Cytochrome P450 2C11 (Rattus norvegicus, UniProt P08683); assay: Mechanism based inhibition of rat cytochrome P450 CYP2C11 measured by testosterone hydroxylation at positions 2-alpha and 16-alpha; format: ADME
T13 sequence (P08683 whole entry): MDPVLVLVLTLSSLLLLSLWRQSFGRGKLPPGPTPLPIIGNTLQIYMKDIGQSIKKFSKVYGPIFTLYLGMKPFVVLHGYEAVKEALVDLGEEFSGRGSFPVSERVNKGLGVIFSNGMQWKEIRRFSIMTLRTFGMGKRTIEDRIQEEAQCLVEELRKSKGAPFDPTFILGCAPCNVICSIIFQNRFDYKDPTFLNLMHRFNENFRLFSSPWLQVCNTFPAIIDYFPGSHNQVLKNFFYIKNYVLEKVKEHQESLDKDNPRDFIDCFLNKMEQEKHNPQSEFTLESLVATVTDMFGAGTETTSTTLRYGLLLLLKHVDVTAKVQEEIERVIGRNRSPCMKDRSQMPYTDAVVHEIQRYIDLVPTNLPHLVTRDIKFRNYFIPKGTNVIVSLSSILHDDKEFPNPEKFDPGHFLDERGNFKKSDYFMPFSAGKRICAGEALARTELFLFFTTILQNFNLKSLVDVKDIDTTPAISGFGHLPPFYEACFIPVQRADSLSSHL

Cytochrome P450 3A2 = Cytochrome P450 3A2 (Rattus norvegicus, UniProt P05183); assay: Mechanism based inhibition of rat cytochrome P450 CYP3A2 measured by testosterone hydroxylation at positions 2-beta and 6-beta; format: ADME
Cytochrome P450 3A2, sequence (P05183 whole entry): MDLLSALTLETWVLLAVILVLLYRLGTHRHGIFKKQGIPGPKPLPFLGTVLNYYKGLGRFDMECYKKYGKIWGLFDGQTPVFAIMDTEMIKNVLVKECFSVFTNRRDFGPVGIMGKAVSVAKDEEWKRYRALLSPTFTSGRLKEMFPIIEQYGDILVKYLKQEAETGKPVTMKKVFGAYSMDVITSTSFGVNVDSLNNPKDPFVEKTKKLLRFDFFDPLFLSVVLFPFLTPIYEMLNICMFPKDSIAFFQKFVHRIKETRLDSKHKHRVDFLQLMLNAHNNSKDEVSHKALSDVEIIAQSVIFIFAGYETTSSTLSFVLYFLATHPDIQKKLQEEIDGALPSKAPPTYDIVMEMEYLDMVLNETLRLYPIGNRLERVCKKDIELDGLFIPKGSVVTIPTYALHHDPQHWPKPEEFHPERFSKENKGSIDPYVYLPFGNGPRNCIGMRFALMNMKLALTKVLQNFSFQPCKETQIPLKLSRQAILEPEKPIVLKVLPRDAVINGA

T7 sequence (P05182 whole entry): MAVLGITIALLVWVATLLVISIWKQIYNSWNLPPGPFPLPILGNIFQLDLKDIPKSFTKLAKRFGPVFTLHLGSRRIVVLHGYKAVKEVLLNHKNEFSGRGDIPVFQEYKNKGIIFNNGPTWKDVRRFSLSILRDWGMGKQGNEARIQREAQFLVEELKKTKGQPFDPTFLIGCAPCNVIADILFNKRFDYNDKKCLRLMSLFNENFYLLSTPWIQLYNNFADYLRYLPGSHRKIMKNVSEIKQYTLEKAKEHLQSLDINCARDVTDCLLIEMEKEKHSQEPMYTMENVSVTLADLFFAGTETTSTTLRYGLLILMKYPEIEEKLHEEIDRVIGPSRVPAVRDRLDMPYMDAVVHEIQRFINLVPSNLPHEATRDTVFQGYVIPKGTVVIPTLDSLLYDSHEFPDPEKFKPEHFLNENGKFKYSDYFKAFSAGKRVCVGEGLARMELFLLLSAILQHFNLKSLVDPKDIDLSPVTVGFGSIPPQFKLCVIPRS
T8 sequence (P24460 whole entry): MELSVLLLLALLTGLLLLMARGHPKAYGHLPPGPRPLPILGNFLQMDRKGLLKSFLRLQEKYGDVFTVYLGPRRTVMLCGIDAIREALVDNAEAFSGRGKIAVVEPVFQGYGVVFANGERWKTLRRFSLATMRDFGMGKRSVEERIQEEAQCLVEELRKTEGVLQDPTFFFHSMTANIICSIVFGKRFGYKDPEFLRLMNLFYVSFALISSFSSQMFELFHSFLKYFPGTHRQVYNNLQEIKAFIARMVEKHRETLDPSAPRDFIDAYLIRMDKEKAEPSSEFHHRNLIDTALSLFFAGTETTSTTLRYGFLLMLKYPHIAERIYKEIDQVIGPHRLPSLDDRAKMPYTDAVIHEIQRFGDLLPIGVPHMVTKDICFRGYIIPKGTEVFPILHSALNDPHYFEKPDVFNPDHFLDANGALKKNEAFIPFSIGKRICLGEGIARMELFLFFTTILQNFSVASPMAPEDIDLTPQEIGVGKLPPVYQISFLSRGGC
T9 sequence (P24460 whole entry): as above
Cytochrome P450 3A12, sequence (P24463 whole entry): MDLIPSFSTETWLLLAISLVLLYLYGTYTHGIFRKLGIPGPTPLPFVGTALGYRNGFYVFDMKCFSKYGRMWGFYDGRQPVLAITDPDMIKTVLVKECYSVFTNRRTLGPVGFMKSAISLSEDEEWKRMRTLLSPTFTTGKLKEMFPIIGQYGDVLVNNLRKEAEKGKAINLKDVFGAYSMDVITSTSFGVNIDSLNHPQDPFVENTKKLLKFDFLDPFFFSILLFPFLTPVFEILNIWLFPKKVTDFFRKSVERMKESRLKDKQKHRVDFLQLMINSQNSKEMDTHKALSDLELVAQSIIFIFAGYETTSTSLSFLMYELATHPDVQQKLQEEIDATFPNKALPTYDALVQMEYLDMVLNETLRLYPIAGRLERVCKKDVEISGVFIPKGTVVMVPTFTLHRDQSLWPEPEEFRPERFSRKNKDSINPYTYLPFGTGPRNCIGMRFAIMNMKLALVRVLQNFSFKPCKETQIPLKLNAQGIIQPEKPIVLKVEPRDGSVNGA
Cytochrome P450 2B10, sequence (P12791 whole entry): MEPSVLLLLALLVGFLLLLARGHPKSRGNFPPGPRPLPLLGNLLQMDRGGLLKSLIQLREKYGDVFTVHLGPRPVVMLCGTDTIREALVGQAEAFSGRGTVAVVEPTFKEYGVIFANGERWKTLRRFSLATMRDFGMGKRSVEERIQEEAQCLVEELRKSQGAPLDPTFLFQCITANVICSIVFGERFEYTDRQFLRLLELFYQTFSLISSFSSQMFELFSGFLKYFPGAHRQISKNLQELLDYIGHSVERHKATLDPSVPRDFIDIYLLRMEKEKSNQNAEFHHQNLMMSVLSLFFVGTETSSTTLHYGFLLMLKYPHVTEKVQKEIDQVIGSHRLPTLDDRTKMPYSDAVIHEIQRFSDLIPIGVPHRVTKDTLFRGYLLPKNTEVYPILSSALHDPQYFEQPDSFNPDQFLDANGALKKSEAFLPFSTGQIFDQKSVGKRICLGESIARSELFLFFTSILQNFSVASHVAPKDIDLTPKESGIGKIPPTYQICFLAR
Cytochrome P450 3A11, sequence (Q64459 whole entry): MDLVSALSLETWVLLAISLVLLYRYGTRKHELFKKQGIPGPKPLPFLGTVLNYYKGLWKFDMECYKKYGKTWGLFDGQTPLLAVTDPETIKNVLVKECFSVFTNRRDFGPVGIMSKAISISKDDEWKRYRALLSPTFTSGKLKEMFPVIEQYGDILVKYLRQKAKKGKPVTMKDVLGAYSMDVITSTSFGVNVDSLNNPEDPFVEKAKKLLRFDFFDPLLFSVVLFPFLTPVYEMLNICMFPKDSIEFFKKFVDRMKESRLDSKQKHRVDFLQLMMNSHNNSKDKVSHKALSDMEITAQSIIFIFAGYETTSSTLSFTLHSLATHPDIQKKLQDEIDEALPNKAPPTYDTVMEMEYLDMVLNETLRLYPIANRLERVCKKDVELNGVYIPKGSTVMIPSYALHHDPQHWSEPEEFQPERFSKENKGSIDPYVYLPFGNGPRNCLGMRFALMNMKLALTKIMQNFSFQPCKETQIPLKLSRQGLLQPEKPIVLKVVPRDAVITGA
Cytochrome P450 3A4, sequence (P08684 whole entry): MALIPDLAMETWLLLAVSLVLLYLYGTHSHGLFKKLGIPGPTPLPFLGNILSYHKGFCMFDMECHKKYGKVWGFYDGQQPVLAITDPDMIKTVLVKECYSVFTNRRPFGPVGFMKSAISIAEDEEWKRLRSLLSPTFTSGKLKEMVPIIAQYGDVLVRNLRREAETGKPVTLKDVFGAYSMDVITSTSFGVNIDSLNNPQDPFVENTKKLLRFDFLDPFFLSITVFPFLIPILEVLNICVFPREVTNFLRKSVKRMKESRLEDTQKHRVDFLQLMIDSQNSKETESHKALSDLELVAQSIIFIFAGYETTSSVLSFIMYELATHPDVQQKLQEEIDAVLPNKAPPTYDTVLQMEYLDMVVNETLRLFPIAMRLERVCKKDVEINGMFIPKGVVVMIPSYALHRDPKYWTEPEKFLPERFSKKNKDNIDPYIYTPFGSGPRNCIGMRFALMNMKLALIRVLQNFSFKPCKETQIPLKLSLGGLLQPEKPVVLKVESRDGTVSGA
CYP3A4, sequence (P08684 whole entry): as above
Cytochrome P450 2C5, sequence (P00179 whole entry): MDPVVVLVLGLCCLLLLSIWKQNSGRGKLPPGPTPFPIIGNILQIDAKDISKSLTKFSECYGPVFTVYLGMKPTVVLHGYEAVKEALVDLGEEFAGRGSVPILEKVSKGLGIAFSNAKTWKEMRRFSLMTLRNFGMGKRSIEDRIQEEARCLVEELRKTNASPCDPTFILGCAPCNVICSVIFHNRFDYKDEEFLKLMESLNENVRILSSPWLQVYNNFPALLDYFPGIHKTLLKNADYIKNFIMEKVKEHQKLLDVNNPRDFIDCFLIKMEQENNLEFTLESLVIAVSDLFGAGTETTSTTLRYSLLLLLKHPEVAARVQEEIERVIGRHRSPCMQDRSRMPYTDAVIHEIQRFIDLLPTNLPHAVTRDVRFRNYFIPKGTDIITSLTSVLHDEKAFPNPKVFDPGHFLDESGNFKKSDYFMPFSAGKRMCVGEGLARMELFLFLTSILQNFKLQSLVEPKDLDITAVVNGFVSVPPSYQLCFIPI
Cholesterol side-chain cleavage enzyme, mitochondrial, sequence (P00189 whole entry): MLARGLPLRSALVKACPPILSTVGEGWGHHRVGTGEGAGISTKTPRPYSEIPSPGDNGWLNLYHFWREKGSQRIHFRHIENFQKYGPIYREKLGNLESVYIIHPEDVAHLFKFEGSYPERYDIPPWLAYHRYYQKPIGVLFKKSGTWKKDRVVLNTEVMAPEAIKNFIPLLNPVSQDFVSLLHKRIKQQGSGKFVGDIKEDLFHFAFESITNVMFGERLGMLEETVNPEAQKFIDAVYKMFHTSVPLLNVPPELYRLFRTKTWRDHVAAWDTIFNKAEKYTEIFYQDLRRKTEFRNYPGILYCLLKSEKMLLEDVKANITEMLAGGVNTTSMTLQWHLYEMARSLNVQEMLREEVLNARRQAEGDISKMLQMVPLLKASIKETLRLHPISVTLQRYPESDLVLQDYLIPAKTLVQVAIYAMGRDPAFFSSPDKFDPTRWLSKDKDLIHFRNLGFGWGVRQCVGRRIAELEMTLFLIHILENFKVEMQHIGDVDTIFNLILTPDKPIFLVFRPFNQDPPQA

Cn1c2ccccc2c2ccccc21
kinact (CYP2B4 [1]): 0.0035 s⁻¹
Ki (Cytochrome P450 2B4 [2]): 23 µM
kinact (CYP2B1): 0.0233 s⁻¹
Ki (Cytochrome P450 2B1): 5.2 µM

Cc1c(N)c(C)c([N+](=O)[O-])c(C(C)(C)C)c1[N+](=O)[O-]
mechanism based inhibition (Cytochrome P450 2B10): Cytochrome P450 mechanistic inhibitor: PMID 9172959

O=C(NCCc1ccc([N+](=O)[O-])cc1)C(Cl)Cl
kinact (CYP1A1): 0.00867 s⁻¹
Ki (Cytochrome P450 1A1): 2.7 µM

CC(C)(C)N=C=S
mechanism based inhibition (Cytochrome P450 2E1 [3]): Cytochrome P450 mechanistic inhibitor: PMID 9778311
mechanism based inhibition (Cytochrome P450 2E1 [4]): Cytochrome P450 mechanistic inhibitor: PMID 9778311

COC(=O)c1csc2snnc12
kinact (CYP2B4 [5]): 0.000667 s⁻¹
Ki (Cytochrome P450 2B4 [6]): 2000 µM
partition_ratio (Cytochrome P450 2B4 [7]): 2100

C[C@]12CC[C@H]3[C@@H](CC=C4C[C@@H](O)CC[C@@]43C)[C@@H]1CC[C@@H]2C(=O)C(Cl)Cl
mechanism based inhibition (Cytochrome P450 2C5): Cytochrome P450 mechanistic inhibitor: PMID 9168258

CC(Nn1nnc2ccccc21)c1ccccc1 (configuration not stated)
kinact (CYP2B11 [8]): 0.00933 s⁻¹
Ki (Cytochrome P450 2B11 [9]): 0.46 µM
kinact (CYP2B11 [10]): 0.025 s⁻¹
Ki (Cytochrome P450 2B11 [11]): 0.35 µM
mechanism based inhibition (Cytochrome P450 3A12): Cytochrome P450 mechanistic inhibitor: PMID 15677349

CC(C)CCS[C@@H](C)[C@H]1CC[C@H]2[C@@H]3CC=C4C[C@@H](O)CC[C@]4(C)[C@H]3CC[C@]12C
mechanism based inhibition [12]: Cytochrome P450 mechanistic inhibitor: PMID 7599132

C=C(C)[C@@H]1CCC(C)=C[C@H]1c1c(O)cc(CCCCC)cc1O [CANNABIDIOL]
mechanism based inhibition (Cytochrome P450 3A11): Cytochrome P450 mechanistic inhibitor: PMID 9778318

COCCCC/C(=N\OCCN)c1ccc(C(F)(F)F)cc1 [FLUVOXAMINE]
kinact (CYP1A2): 0.00267 s⁻¹
Ki (Cytochrome P450 1A2): 57.4 µM

CC1(C)C=Cc2c(ccc3c2OC[C@@H](c2ccc(O)cc2O)C3)O1 [GLABRIDIN]
kinact (CYP2B6): 0.00133 s⁻¹
kinact (CYP3A4): 0.00233 s⁻¹
Ki (Cytochrome P450 3A4): 7 µM

[N]=O [NITRIC OXIDE]
mechanism based inhibition (Cytochrome P450 2C11): Cytochrome P450 mechanistic inhibitor: PMID 9400024
mechanism based inhibition (Cytochrome P450 3A2): Cytochrome P450 mechanistic inhibitor: PMID 9400024
